# Laboratory results taken from patent US20210025895A1, “CANCER SERUM BIOMARKERS AND METHODS OF USE THEREOF” (X4 Pharmaceuticals, Inc., priority 2018, published 2021).
# Where “and” joins values, the source holds several entries; their conditions need not be identical. Equal entries are not always repeated.
# Legend:
# [1] = Phase 1 and 2a trials; cited from earlier work
# [2] = test system: CXCL9; test: Serum CXCL9 in melanoma patients, Multi-Analyte Profile Platform (Myriad RBM); format: in vivo, human; settings: individual melanoma patients
# Protocol: (§1) Subjects were first screened and evaluated for baseline measurements.
# (§2) Prior to treatment two (2) baseline serum samples were collected from each patient.
# (§3) Three (3) weeks after treatment was initiated, additional serum samples were collected from each patient. Additional biopsy samples were also collected unless the attending physician recommended against the biopsy. Following sample collection, subjects were administered the first of two doses of pembrolizumab (2 mg/kg, i.v.).
# (§4) Three (3) weeks after the administration of the first dose of pembrolizumab (six weeks from beginning of treatment) additional serum samples were collected from each patient. Subjects then administered a second dose of pemrolizumab (2 mg/kg, i.v.).
# (§5) Three (3) weeks after the administration of the second dose of pembrolizumab (nine weeks from the beginning of treatment) additional serum samples were collected. Additional biopsy samples were also collected unless the attending physician recommended against the biopsy.
# (§6) Five (5) additional patients were evaluated. Baselines in Tables 1 and 2 represent measurements taken on Day 1. Baselines in Tables 1a and 2a represent an average of two measurements taken at screening and on Day 1.
# [3] = in vivo; settings: terminal half-life (T1/2)
# [4] = test system: advanced or metastatic melanoma; test: Tumor sample / tumor microenvironment biomarkers in solid tumors such as melanoma; format: in vivo, human
# Protocol: A primary comparison is the density of specific cell phenotypes in the tumor microenvironment in the pre-treatment biopsy vs. the Week 4 and EOT biopsies. CD8^+ T cells/mm^−2 are measured in melanoma tumor parenchyma prior to treatment.
# [5] = Solubility of X4P-001; format: physicochemical
# [6] = test system: CXCL10; test: Serum CXCL10 in melanoma patients, Multi-Analyte Profile Platform (Myriad RBM); format: in vivo, human; settings: individual melanoma patients
# Protocol: as §1, §2, §3, §4, §5, §6
# [7] = test system: melanoma, renal cell carcinoma, and ovarian cancer; settings: murine models; cited from earlier work
# [8] = test system: serum cytokines and chemokines; test: Serum chemokines, cytokines and growth factors in melanoma patients, change vs baseline; format: in vivo, human
# Protocol: as §1, §2, §3, §6
# [9] = test system: advanced clear-cell renal-cell carcinoma; settings: cited from earlier work; for objective response rate: Phase 3, nivolumab 3 mg/kg iv every two weeks vs everolimus 10 mg orally daily, P<0.001
# [10] = test system: pancreatic adenocarcinoma; settings: cited from earlier work
# [11] = test system: unresectable or metastatic melanoma; settings: Phase 3 trial, P<0.001; cited from earlier work
# [12] = solid tumors, e.g. advanced or metastatic melanoma
compound,measurement,setting,value
NCCCCN(Cc1nc2ccccc2[nH]1)[C@H]1CCCc2cccnc21 [X4P-001],"pharmacodynamic activity, circulating white blood cells (WBCs)",[1],dose- and concentration-related changes in circulating white blood cells
same,volume of distribution (VL),[1],high volume of distribution
same,"Patient Serum CXCL9 Levels, Post-X4P-001 Monotherapy","[2]; Table 1, three weeks single agent therapy",836 pg/mL and 2260 pg/mL and 2530 pg/mL and 843 pg/mL and 2020 pg/mL and 1020 pg/mL and 1410 pg/mL and 766 pg/mL and 794 pg/mL and 1380 pg/mL and 425 pg/mL
same,"Patient Serum CXCL9 Levels, Post-X4P-001 Monotherapy","[2]; Table 1a (updated data, 16 patients)",836 pg/mL and 2260 pg/mL and 2530 pg/mL and 843 pg/mL and 2020 pg/mL and 1020 pg/mL and 1410 pg/mL and 766 pg/mL and 1245 pg/mL and 769.5 pg/mL and 460.5 pg/mL and 1030 pg/mL and 1750 pg/mL and 794 pg/mL and 1380 pg/mL and 425 pg/mL
same,half-life,[3],720 to 1440 min
same,levels of Treg cells,[4]; [12],without significantly increasing levels of Treg cells
same,levels of macrophages in the tumor,[4]; [12],without significantly modulating levels of macrophages in the tumor
same,numbers of CD8+ T cells and/or CD4+ T cells in tumors,[4]; [12],increases observed numbers of CD8^+ T cells and/or CD4^+ T cells
same,IFN-γ gene signature,[4]; tumor,increases one or more of a panel of IFN-γ related genes
same,PD-L1 expression,[4]; tumor samples and tumor microenvironment,increases PD-L1 expression in tumor samples and the tumor microenvironment
same,CTL signature gene expression,[4]; tumor samples or tumor microenvironment,increases gene expression of one or more of a panel of cytotoxic T cell (CTL)-related genes
same,solubility,"[5]; aqueous buffer, pH range 3.0 to 8.0 (freely soluble)",> 100 mg/mL
same,solubility in water,[5]; water,only slightly soluble
same,"Patient Serum CXCL10 Levels, Post-X4P-001 Monotherapy","[6]; Table 2, three weeks single agent therapy",767 pg/mL and 146 pg/mL and 262 pg/mL and 101 pg/mL and 123 pg/mL and 384 pg/mL and 118 pg/mL and 174 pg/mL and 139 pg/mL and 331 pg/mL and 521 pg/mL
same,"Patient Serum CXCL10 Levels, Post-X4P-001 Monotherapy","[6]; Table 2a (updated data, 16 patients)",767 pg/mL and 146 pg/mL (2×) and 262 pg/mL and 101 pg/mL and 123 pg/mL and 384 pg/mL and 118 pg/mL and 174 pg/mL and 272 pg/mL and 166 pg/mL and 350 pg/mL and 139 pg/mL and 331 pg/mL and 521 pg/mL
same,"anti-tumor activity, including decreased metastasis and increased overall survival",[7],significant anti-tumor activity
same,serum CXCL9 and CXCL10 levels,"[8]; following monotherapy, melanoma patients",generally increase following monotherapy
same,levels of serum CXCL9 and CXCL10,"[8]; patients with solid tumors, e.g. advanced or metastatic melanoma",increases levels of serum CXCL9 and CXCL10
same,levels of serum cytokine panel,[8]; serum,modulates levels of one or more of a panel of serum cytokines
CO[C@H]1C[C@@H]2CC[C@@H](C)[C@@](O)(O2)C(=O)C(=O)N2CCCC[C@H]2C(=O)O[C@H]([C@H](C)C[C@@H]2CC[C@@H](OCCO)[C@H](OC)C2)CC(=O)[C@H](C)/C=C(\C)[C@@H](O)[C@@H](OC)C(=O)[C@H](C)C[C@H](C)/C=C/C=C/C=C/1C [everolimus],objective response rate,[9],5%
"c1cc(CN2CCCNCCNCCCNCC2)ccc1CN1CCCNCCNCCCNCC1 [plerixafor, Plerixafor]","anti-tumor activity, including decreased metastasis and increased overall survival",[7],significant anti-tumor activity
same,tumor growth,[10]; in combination with anti-PD-L1,synergistically decreased tumor growth
same,T-cell accumulation among cancer cells,[10]; murine pancreatic adenocarcinoma,induced rapid T-cell accumulation among the cancer cells
ipilimumab: anti-CTLA-4 antibody,objective response rate,[11],12%
nivolumab: fully human IgG4 monoclonal antibody binding to the PD-1 receptor,objective response rate,[9],25%
same,incidence of Grade 3 or 4 treatment-related adverse events,[9]; vs everolimus,lower incidence of Grade 3 or 4 treatment-related adverse events
same,median overall survival,[9]; vs everolimus,longer median overall survival
pembrolizumab: humanized IgG4 kappa monoclonal antibody that blocks the interaction between PD-1 and its ligands,objective response rate,[11],33%
